Results: ChEMBL document CHEMBL4368896, “Thiosemicarbazones with tyrosinase inhibitory activity” (Medchemcomm, 2019)
“And” between values parts separate entries of the source, which are not always exact repeats. Identical values can stand only once. One block for each molecule: values may come before it.

Experiments:
Tyrosinase [1] = target: T1, Tyrosinase (Agaricus bisporus, UniProt O42713); test: Inhibition of mushroom tyrosinase using L-dopa as substrate preincubated for 10 mins followed by substrate addition and measured for 1 min
T1 sequence (O42713 whole entry): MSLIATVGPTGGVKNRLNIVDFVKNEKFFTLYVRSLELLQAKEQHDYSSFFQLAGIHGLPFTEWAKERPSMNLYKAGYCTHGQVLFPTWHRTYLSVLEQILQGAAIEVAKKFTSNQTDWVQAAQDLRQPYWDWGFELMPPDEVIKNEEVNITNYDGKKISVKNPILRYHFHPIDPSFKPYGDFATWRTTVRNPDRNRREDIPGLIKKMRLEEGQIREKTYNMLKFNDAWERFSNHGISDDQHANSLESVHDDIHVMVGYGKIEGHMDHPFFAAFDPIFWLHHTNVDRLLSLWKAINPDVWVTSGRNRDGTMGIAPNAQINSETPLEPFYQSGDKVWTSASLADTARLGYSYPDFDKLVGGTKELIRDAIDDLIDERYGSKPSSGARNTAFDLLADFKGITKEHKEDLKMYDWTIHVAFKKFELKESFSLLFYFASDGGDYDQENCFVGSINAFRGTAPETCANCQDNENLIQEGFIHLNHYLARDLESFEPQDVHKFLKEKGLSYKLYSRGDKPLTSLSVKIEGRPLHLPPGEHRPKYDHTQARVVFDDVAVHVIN

Tyrosinase [2] = target: T2, Tyrosinase (Mus musculus, UniProt P11344); test: Inhibition of tyrosinase in mouse B16 cells using L-DOPA as substrate preincubated for 72 hrs followed by substrate addition and measured after 30 mins; format: cell-based
T2 sequence (P11344 whole entry): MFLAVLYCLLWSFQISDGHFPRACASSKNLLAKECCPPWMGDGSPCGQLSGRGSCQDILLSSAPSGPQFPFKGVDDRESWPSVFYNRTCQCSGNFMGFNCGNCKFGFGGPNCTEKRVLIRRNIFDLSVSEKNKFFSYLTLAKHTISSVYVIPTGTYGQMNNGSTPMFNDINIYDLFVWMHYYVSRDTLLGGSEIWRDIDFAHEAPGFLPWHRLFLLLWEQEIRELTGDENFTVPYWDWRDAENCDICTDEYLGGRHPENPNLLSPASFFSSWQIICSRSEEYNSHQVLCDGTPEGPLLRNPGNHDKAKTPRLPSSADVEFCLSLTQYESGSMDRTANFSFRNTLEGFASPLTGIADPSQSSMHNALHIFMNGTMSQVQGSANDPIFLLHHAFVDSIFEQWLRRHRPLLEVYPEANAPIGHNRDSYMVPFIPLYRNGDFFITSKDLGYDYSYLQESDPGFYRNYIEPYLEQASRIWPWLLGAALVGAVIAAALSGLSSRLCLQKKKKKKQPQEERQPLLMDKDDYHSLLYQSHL

Tyrosinase [3] = target: T1, Tyrosinase; test: Reversible competitive inhibition of mushroom tyrosinase after 10 mins by Lineweaver-Burk plot analysis
[4] = target: T3, Tyrosinase (Agaricus bisporus) (UniProt O42713); test: Mixed-type inhibition of mushroom tyrosinase after 10 mins by Lineweaver-Burk plot analysis
T3 sequence (whole entry): T1 sequence (O42713 whole entry)

Tyrosinase [5] = target: T1, Tyrosinase; test: Inhibition of mushroom tyrosinase using L-dopa as substrate measured for 150 secs by spectrophotometric analysis
Tyrosinase [6] = target: T1, Tyrosinase
Description: (§5) Reversible mixed-type inhibition of mushroom tyrosinase using L-dopa as substrate by Lineweaver-Burk plot analysis

[7] = target: T3, Tyrosinase (Agaricus bisporus)
Description: as §5

Tyrosinase [8] = target: T1, Tyrosinase; remark: listed apart in the source
Tyrosinase [9] = target: T1, Tyrosinase; test: Non-competitive inhibition of mushroom tyrosinase using L-dopa as substrate preincubated for 5 mins followed by substrate addition and measured for 5 mins
Tyrosinase [10] = target: T1, Tyrosinase; test: (§1) Mixed-type inhibition of mushroom tyrosinase using L-dopa as substrate preincubated for 5 mins followed by substrate addition and measured for 3 mins
[11] = target: T3, Tyrosinase (Agaricus bisporus); test: as §1
Tyrosinase [12] = target: T1, Tyrosinase; test: Non-competitive inhibition of mushroom tyrosinase by Lineweaver-Burk plot analysis
Tyrosinase [13] = target: T1, Tyrosinase; test: Inhibition of mushroom tyrosinase monophenolase activity using L-tyrosine as substrate
Tyrosinase [14] = target: T1, Tyrosinase; test: (§2) Reversible mixed-type inhibition of mushroom tyrosinase by Lineweaver-Burk plot analysis
[15] = target: T3, Tyrosinase (Agaricus bisporus); test: as §2
Tyrosinase [16] = target: T1, Tyrosinase; test: Inhibition of mushroom tyrosinase using L-dopa as substrate preincubated for 2 mins followed by substrate addition and measured for 5 mins by spectrophotometric analysis
Tyrosinase [17] = target: T1, Tyrosinase; test: Inhibition of mushroom tyrosinase diphenolase activity using L-dopa as substrate after 10 mins by spectrophotometric analysis
Tyrosinase [18] = target: T1, Tyrosinase; test: Inhibition of mushroom tyrosinase monophenolase activity using L-tyrosine as substrate after 10 mins by spectrophotometric analysis
Tyrosinase [19] = target: T1, Tyrosinase; test: Reversible inhibition of mushroom tyrosinase after 10 mins by Lineweaver-Burk plot analysis
Tyrosinase [20] = target: T1, Tyrosinase; test: (§3) Mixed-type inhibition of mushroom tyrosinase using L-tyrosine as substrate by Lineweaver-Burk plot analysis
[21] = target: T3, Tyrosinase (Agaricus bisporus); test: as §3
Tyrosinase [22] = target: T1, Tyrosinase; test: Reversible competitive inhibition of mushroom tyrosinase using L-dopa as substrate preincubated for 2 mins followed by substrate addition and measured for 5 mins by Lineweaver-Burk plot analysis
Tyrosinase [23] = target: T1, Tyrosinase; test: (§4) Mixed-type inhibition of mushroom tyrosinase by Lineweaver-Burk plot analysis
[24] = target: T3, Tyrosinase (Agaricus bisporus); test: as §4

SMILES: COc1ccc(/C=N/NC(N)=S)cc1O
IC50 (Tyrosinase [1]): 4880 nM

SMILES: COCCOc1ccc(/C=N/NC(N)=S)cc1
IC50 (Tyrosinase [1]): 750 nM

SMILES: C/C(=N\N=C(/N)S)c1ccccc1 [PHENYL(METHYL)THIOSEMICARBAZONE]
Ki (Tyrosinase [3]): 380 nM
IC50 (Tyrosinase [2]): 2000 nM
Kis [4]: 0.83 µM and 1.4 µM

SMILES: CCCC(=O)OCc1csc(/C=N/NC(N)=S)c1
IC50 (Tyrosinase [5]): 105 nM

SMILES: NC(=S)N/N=C/c1cccs1
Ki (Tyrosinase [6]): 167000 nM
Kis [7]: 2.59 µM
IC50 (Tyrosinase [8]): 430 nM

SMILES: CC(C)C/C(=N\NC(N)=S)c1ccccc1
IC50 (Tyrosinase [2]): < 1000 nM

SMILES: COCCCCOc1ccc(/C=N/NC(N)=S)cc1
IC50 (Tyrosinase [1]): 410 nM

SMILES: NC(=S)N/N=C/c1ccccc1 [PHENYLTHIOSEMICARBAZONE]
Ki (Tyrosinase [9]): 3700 nM
Ki (Tyrosinase [10]): 930 nM
Kis [11]: 93 µM
IC50 (Tyrosinase [2]): 10200 nM

SMILES: COc1ccc(OC)c(/C=N/NC(N)=S)c1
IC50 (Tyrosinase [1]): > 50000 nM

SMILES: NC(=S)N/N=C/c1ccccc1O
IC50 (Tyrosinase [1]): 380 nM

SMILES: NC(=S)N/N=C/c1ccc(O)cc1Br
IC50 (Tyrosinase [1]): 330 nM

SMILES: CC(C)COc1ccc(/C=N/NC(N)=S)cc1
IC50 (Tyrosinase [1]): 2210 nM

SMILES: NC(=S)N/N=C/c1ccc(OCOC(CO)CO)cc1
IC50 (Tyrosinase [1]): 940 nM

SMILES: CCOc1ccc(/C=N/NC(N)=S)cc1
IC50 (Tyrosinase [1]): 1920 nM

SMILES: CC(C)Oc1ccc(/C=N/NC(N)=S)cc1
IC50 (Tyrosinase [1]): 900 nM

SMILES: CCC(=O)OCc1csc(/C=N/NC(N)=S)c1
IC50 (Tyrosinase [5]): 161 nM

SMILES: C/C(=N\NC(N)=S)c1ccco1
IC50 (Tyrosinase [8]): 824 nM

SMILES: N=C(S)N/N=C/c1ccc(Oc2ccc(F)cc2)cc1
IC50 (Tyrosinase [1]): 1460 nM

SMILES: CCCCCC/C(=N\NC(N)=S)c1ccccc1
IC50 (Tyrosinase [2]): < 1000 nM

SMILES: CCOCc1csc(/C=N/NC(N)=S)c1
IC50 (Tyrosinase [5]): 490 nM

SMILES: CNC(=S)N/N=C(\C)c1ccc(OC)cc1
IC50 (Tyrosinase [16]): 65000 nM

SMILES: NC(=S)N/N=C/c1ccc(-c2ccccc2)s1
IC50 (Tyrosinase [5]): 670 nM

SMILES: CCCC/C(=N\NC(N)=S)c1ccccc1
IC50 (Tyrosinase [2]): 1200 nM

SMILES: NC(=S)N/N=C/c1cc(COCCO)cs1
IC50 (Tyrosinase [5]): 1420 nM

SMILES: NC(=S)N/N=C/c1ccc(O)cc1
IC50 (Tyrosinase [17]): 3800 nM
IC50 (Tyrosinase [1]): 410 nM
IC50 (Tyrosinase [18]): 760 nM
Ki (Tyrosinase [19]): 2820 nM
Kis [4]: 6.79 µM

SMILES: C/C(=N\NC(N)=S)c1ccc[nH]1
IC50 (Tyrosinase [8]): 4150 nM

SMILES: CNC(=S)N/N=C(\C)c1ccccc1O
IC50 (Tyrosinase [16]): 108000 nM

SMILES: C=CCOc1ccc(/C=N/NC(N)=S)cc1
IC50 (Tyrosinase [1]): 1290 nM

SMILES: CC/C(=N\N=C(\N)S)c1ccccc1
IC50 (Tyrosinase [2]): < 1000 nM

SMILES: CCCCC(=O)OCc1csc(/C=N/NC(N)=S)c1
IC50 (Tyrosinase [5]): 110 nM

SMILES: CCCCOc1ccc(/C=N/NC(N)=S)cc1
IC50 (Tyrosinase [1]): 1310 nM

SMILES: NC(=S)N/N=C/c1ccc(Oc2ccccc2)cc1
IC50 (Tyrosinase [1]): 980 nM

SMILES: CCCCCOc1ccc(/C=N/NC(N)=S)cc1
IC50 (Tyrosinase [1]): 1090 nM

SMILES: NC(=S)N/N=C/c1cc(COC(=O)C2CCCCC2)cs1
IC50 (Tyrosinase [5]): 136 nM

SMILES: NC(=S)N/N=C/c1ccc(Cl)cc1
Ki (Tyrosinase [23]): 1250 nM
Kis [24]: 2.49 µM
IC50 (Tyrosinase [8]): 1820 nM
IC50 (Tyrosinase [13]): 6700 nM

Other lines, results leading:

IC50 (Tyrosinase [2]): < 1000 nM
SMILES: CCCCCCCCCCC/C(=N\NC(N)=S)c1ccccc1

IC50 (Tyrosinase [1]): 370 nM
SMILES: NC(=S)N/N=C/c1ccc(OCOCCO)cc1

IC50 (Tyrosinase [8]): 1410 nM
SMILES: C/C(=N\NC(N)=S)c1cccs1

IC50 (Tyrosinase [1]): 280 nM
SMILES: NC(=S)N/N=C/c1ccc(Br)cc1

IC50 (Tyrosinase [8]): 800 nM
Ki (Tyrosinase [12]): 770 nM
IC50 (Tyrosinase [13]): 1780 nM
SMILES: CN(C)c1ccc(/C=N/NC(=S)Nc2ccccc2)cc1

Ki (Tyrosinase [14]): 4450 nM
Kis [15]: 8.85 µM
SMILES: NC(=S)N/N=C/C=C/c1ccccc1

IC50 (Tyrosinase [1]): 5680 nM
SMILES: COc1cc(/C=N/NC(N)=S)ccc1O

IC50 (Tyrosinase [16]): 213000 nM
SMILES: CNC(=S)N/N=C(\C)c1ccccc1

IC50 (Tyrosinase [5]): 196 nM
SMILES: NC(=S)N/N=C/c1cc(COC=O)cs1

IC50 (Tyrosinase [1]): 920 nM
SMILES: CCCCOCCOc1ccc(/C=N/NC(N)=S)cc1

IC50 (Tyrosinase [17]): 2620 nM
IC50 (Tyrosinase [1]): 1480 nM
IC50 (Tyrosinase [18]): 7000 nM
Ki (Tyrosinase [19]): 1470 nM
IC50 (Tyrosinase [2]): 139000 nM
Kis [4]: 15.1 µM
SMILES: COc1ccc(/C=N/NC(N)=S)cc1

IC50 (Tyrosinase [1]): 340 nM
SMILES: COCCOCCOc1ccc(/C=N/NC(N)=S)cc1

IC50 (Tyrosinase [1]): > 40000 nM
SMILES: NC(=S)N/N=C/c1ccc(O)c(O)c1

IC50 (Tyrosinase [8]): 2020 nM
Ki (Tyrosinase [20]): 1770 nM
Kis [21]: 6.49 µM
IC50 (Tyrosinase [13]): 1540 nM
SMILES: CN(C)c1ccc(/C=N/NC(N)=S)cc1

IC50 (Tyrosinase [5]): 340 nM
SMILES: CC(=O)OCc1csc(/C=N/NC(N)=S)c1

IC50 (Tyrosinase [2]): < 1000 nM
SMILES: CCC/C(=N\NC(N)=S)c1ccccc1

IC50 (Tyrosinase [5]): 670 nM
SMILES: NC(=S)N/N=C/c1cc(CO)cs1

IC50 (Tyrosinase [16]): 18000 nM
SMILES: CNC(=S)N/N=C(\C)c1ccc(OC)cc1O

IC50 (Tyrosinase [1]): 3900 nM
SMILES: NC(=S)N/N=C/c1cccc(O)c1

IC50 (Tyrosinase [1]): 180 nM
SMILES: NC(=S)N/N=C/c1ccc(O)cc1O

IC50 (Tyrosinase [1]): 3030 nM
SMILES: CCCOc1ccc(/C=N/NC(N)=S)cc1

Ki (Tyrosinase [6]): 80 nM
Kis [7]: 0.29 µM
IC50 (Tyrosinase [8]): 3990 nM
SMILES: NC(=S)N/N=C/c1ccc[nH]1

IC50 (Tyrosinase [2]): < 2300 nM
SMILES: CC(C)/C(=N\NC(N)=S)c1ccccc1

IC50 (Tyrosinase [1]): > 30000 nM
SMILES: NC(=S)N/N=C/c1cc(O)cc(O)c1

IC50 (Tyrosinase [1]): 530 nM
SMILES: NC(=S)N/N=C/c1ccc(OCCO)cc1

IC50 (Tyrosinase [2]): < 1000 nM
SMILES: CCCCC/C(=N\NC(N)=S)c1ccccc1

IC50 (Tyrosinase [5]): 140 nM
SMILES: NC(=S)N/N=C/c1cc(COC(=O)C2CCCC2)cs1

IC50 (Tyrosinase [8]): 1220 nM
Ki (Tyrosinase [12]): 1200 nM
IC50 (Tyrosinase [13]): 15400 nM
SMILES: NC(=S)N/N=C/c1ccccc1Cl

Ki (Tyrosinase [22]): 5000 nM
IC50 (Tyrosinase [16]): 6000 nM
SMILES: CNC(=S)N/N=C(\C)c1ccc(O)cc1O

IC50 (Tyrosinase [5]): 740 nM
SMILES: COCc1csc(/C=N/NC(N)=S)c1

Ki (Tyrosinase [6]): 600 nM
Kis [7]: 1.18 µM
IC50 (Tyrosinase [8]): 2350 nM
SMILES: NC(=S)N/N=C/c1ccco1

IC50 (Tyrosinase [5]): 68 nM
SMILES: NC(=S)N/N=C/c1cc(COC(=O)c2ccccc2)cs1
